Source: patent US20070128217A1 (priority 2003, published 2007)

Legend:
[1] = test system: antibodies in sera from SARS patients (sera 1a, 1b, 2, 6, 37, 62, London, SARS-yellow, SARS-green); assay type: binding, human; set-up: Binding of serum 6 to linear peptides of protein X1 of SARS-CoV Urbani / Binding of serum 37 to linear peptides of protein X1 of SARS-CoV Urbani / Binding of serum 6 to looped/cyclic peptide (PEPSCAN-ELISA) / Binding of serum 37 to looped/cyclic peptide (PEPSCAN-ELISA) / Binding of serum 37 to looped/cyclic peptides of protein X1 of SARS-CoV Urbani / Binding of serum 6 to linear peptides of protein X2 / Binding of serum 37 to linear peptides of protein X2 / Binding of serum 37 to looped/cyclic peptides of protein X2 of SARS-CoV Urbani / Binding of serum 6 to linear peptides of protein M of SARS-CoV Urbani / Binding of serum 37 to linear peptides of protein M of SARS-CoV Urbani / Binding of serum 6 to looped/cyclic peptides of protein M of SARS-CoV Urbani / Binding of serum 37 to looped/cyclic peptides of protein M of SARS-CoV Urbani / Binding of serum 6 to linear peptides of protein X3 of SARS-CoV Urbani / Binding of serum 37 to linear peptides of protein X3 of SARS-CoV Urbani / Binding of serum 37 to looped/cyclic peptides of protein X3 of SARS-CoV Urbani / Binding of serum 6 to linear peptides of protein X4 of SARS-CoV Urbani / Binding of serum 37 to linear peptides of protein X4 of SARS-CoV Urbani / Binding of serum 37 to looped/cyclic peptides of protein X4 of SARS-CoV Urbani / Binding of serum 6 to linear peptides of protein X5 of SARS-CoV Urbani / Binding of serum 37 to linear peptides of protein X5 of SARS-CoV Urbani / Binding of serum 37 to looped/cyclic peptides of protein X5 of SARS-CoV Urbani / Binding of serum 6 to linear peptides of protein N of SARS-CoV Urbani / Binding of serum 37 to linear peptides of protein N of SARS-CoV Urbani / Binding of serum 6 to linear peptide (PEPSCAN-ELISA) / Binding of serum 1a to looped/cyclic peptides of protein N of SARS-CoV Urbani / Binding of serum 1b to looped/cyclic peptides of protein N of SARS-CoV Urbani / Binding of serum 2 to looped/cyclic peptides of protein N of SARS-CoV Urbani / Binding of serum 6 to looped/cyclic peptides of protein N of SARS-CoV Urbani / Binding of serum 37 to looped/cyclic peptides of protein N of SARS-CoV Urbani / Binding of serum 62 to looped/cyclic peptides of protein N of SARS-CoV Urbani / Binding of serum London to looped/cyclic peptides of protein N of SARS-CoV Urbani / Binding of serum SARS-green to looped/cyclic peptides of protein N of SARS-CoV Urbani: unit not given here
[2] = test system: control sera (pooled serum of ten healthy LUMC hospital workers; commercial negative donor pooled serum from the Dutch bloodbank); assay type: binding, human; set-up: Binding of Control serum LUMC to linear peptides / Binding of Control serum Blood-bank to linear peptides / Binding of Control serum LUMC to looped peptides / Binding of Control Serum Blood-Bank to Looped peptides / Binding of Control serum LUMC to linear peptides of the protein M of SARS-CoV Urbani / Binding of Control serum Blood-bank to linear peptides of the protein M of SARS-CoV Urbani / Binding of Control serum LUMC to looped peptides of the protein M of SARS-CoV Urbani / Binding of Control Serum Blood-Bank to Looped peptides of the protein M of SARS-CoV Urbani: unit not given here
[3] = test system: rabbit serum obtained by immunizing a rabbit with the SARS-CoV strain Frankfurt 1; assay type: binding; set-up: Binding of a rabbit serum to linear peptides / Binding of a rabbit serum to looped peptides / Rabbit serum linear peptides / Rabbit serum looped peptides / Binding of a rabbit serum to linear peptides of protein N of SARS-CoV Urbani (Rabbit serum linear peptides) / Binding of a rabbit serum to looped/cyclic peptides of protein N of SARS-CoV Urbani (Rabbit serum looped peptides): unit not given here
[4] = test system: recombinant human anti-SARS-CoV antibody 03-018; assay type: binding; set-up: Binding of antibody 03-018 to linear peptides of the N protein of SARS-CoV Urbani / Binding of antibody 03-018 to looped/cyclic peptides of the N protein of SARS-CoV Urbani: unit not given here

Sequence | Binding of serum 1a to linear peptides of protein N of SARS-CoV Urbani [1] | Binding of serum 1a to looped/cyclic peptides of protein N of SARS-CoV Urbani [1] | Binding of serum 1b to linear peptides of protein N of SARS-CoV Urbani [1] | Binding of serum 1b to looped/cyclic peptides of protein N of SARS-CoV Urbani [1] | Binding of serum 2 to linear peptides of protein N of SARS-CoV Urbani [1] | Binding of serum 2 to looped/cyclic peptides of protein N of SARS-CoV Urbani [1] | Binding of serum 6 to linear peptides of protein N of SARS-CoV Urbani [1] | Binding of serum 6 to looped/cyclic peptides of protein N of SARS-CoV Urbani [1] | Binding of serum 37 to linear peptides of protein N of SARS-CoV Urbani [1] | Binding of serum 37 to looped/cyclic peptides of protein N of SARS-CoV Urbani [1] | Binding of serum 62 to linear peptides of protein N of SARS-CoV Urbani [1] | Binding of serum 62 to looped/cyclic peptides of protein N of SARS-CoV Urbani [1] | Binding of serum London to linear peptides of protein N of SARS-CoV Urbani [1] | Binding of serum London to looped/cyclic peptides of protein N of SARS-CoV Urbani [1] | Binding of serum SARS-green to linear peptides of protein N of SARS-CoV Urbani [1] | Binding of serum SARS-green to looped/cyclic peptides of protein N of SARS-CoV Urbani [1] | Binding of serum SARS-yellow to linear peptides of protein N of SARS-CoV Urbani [1] | Binding of serum SARS-yellow to looped/cyclic peptides of protein N of SARS-CoV Urbani [1] | Binding of Control Serum Blood-Bank to Looped peptides [2] | Binding of Control serum Blood-bank to linear peptides [2] | further results
NQNGGRNGARPKQRR | 0.2 | 0.2 | 0.1 | 0.1 | 0.3 | 0.2 | 0.3 | 0.2 | 0.8 | 0.4 | 0.7 | 0.3 | 0.5 | 0.3 | 0.5 | 0.2 | 0.6 | 0.3 | 0.6 | 0.7 | Binding of Control serum LUMC to linear peptides [2]: 0.8; Binding of Control serum LUMC to looped peptides [2]: 0.5; Binding of a rabbit serum to linear peptides of protein N of SARS-CoV Urbani (Rabbit serum linear peptides) [3]: 0.5; Binding of a rabbit serum to looped/cyclic peptides of protein N of SARS-CoV Urbani (Rabbit serum looped peptides) [3]: 1.1; Binding of antibody 03-018 to linear peptides of the N protein of SARS-CoV Urbani [4]: 0.2; Binding of antibody 03-018 to looped/cyclic peptides of the N protein of SARS-CoV Urbani [4]: 0.2
NQRSAPRITFGGPTD | 0.2 | 0.4 | 0.1 | 0.3 | 0.1 | 0.4 | 0.1 | 0.2 | 0.7 | 0.6 | 0.6 | 0.4 | 0.5 | 0.4 | 0.3 | 0.5 | 0.5 | 0.7 | 0.6 | 0.6 | Binding of Control serum LUMC to linear peptides [2]: 0.5; Binding of Control serum LUMC to looped peptides [2]: 0.7; Binding of a rabbit serum to linear peptides of protein N of SARS-CoV Urbani (Rabbit serum linear peptides) [3]: 0.3; Binding of a rabbit serum to looped/cyclic peptides of protein N of SARS-CoV Urbani (Rabbit serum looped peptides) [3]: 0.4; Recognition of the peptide by antibody 03-018 [4]: recognized
NSGPDDQIGYYRRAT | 0.2 | 0.5 | 0.1 | 0.3 | 0.1 | 0.5 | 0.2 | 0.3 | 0.7 | 1.0 | 0.6 | 0.7 | 0.4 | 0.5 | 0.1 | 0.5 | 0.5 | 0.6 | 0.7 | 0.7 | Binding of Control serum LUMC to linear peptides [2]: 0.7; Binding of Control serum LUMC to looped peptides [2]: 0.8; Binding of a rabbit serum to linear peptides of protein N of SARS-CoV Urbani (Rabbit serum linear peptides) [3]: 0.1; Binding of a rabbit serum to looped/cyclic peptides of protein N of SARS-CoV Urbani (Rabbit serum looped peptides) [3]: 0.5; Binding of antibody 03-018 to linear peptides of the N protein of SARS-CoV Urbani [4]: 0.1; Binding of antibody 03-018 to looped/cyclic peptides of the N protein of SARS-CoV Urbani [4]: 0.2
